# Experimental data from patent publication US20090104159A1, “Vascular/Lymphatic Endothelial Cells” (priority 2005, published 2009).
# What was measured:
# hMAPCs [1] = assay: Blocking of Patched and Notch pathways during hMAPC-EC differentiation; type: cell-based, human; details: hMAPC-ECs, 14 days, exogenous VEGF present, cyclopamine 5 μM; for expression of arterial EC markers Hey-2, EphrinB1 and EphrinB2: L-685,458 1 μM
# Procedure: For real time RT-PCR Syber Green and Taq Man® methods were used as described (Hong et al., 2004). GAPDH was used as a housekeeping control. […] Primers used for both RT-PCR and real time PCR are shown below in Table 2.
# Blocking of Patched and Notch pathways was performed using cyclopamine Watkins et al., 2003) (Biomol) at 5 μM (added every 4-5 days with media change) and 1 μM of esecretase inhibitor L-685,458 (Bachem) (Dahlqvist et al., 2003), respectively. Exogenous VEGF was present in the media for the blocking experiments (no exogenous Shh or Dll-4).
# rat MAPCs = assay: Endothelial differentiation of rat MAPCs (qRT-PCR); type: cell-based; details: Shh-antibody 0.5 micrograms/ml, cyclopamine 10 micromolar
# Procedure: (§1) Glass 4-well chambers with were coated with 1 μg/ml human fibronectin (Sigma, F0895) for about 30 minutes to about 1 hour in the 37° C. incubator. The cells were collected (with the use of 0.05% trypsin), counted and resuspended at 120K/ml in mouse MAPC culture media (see above). The fibronectin was taken off and the cells were seeded (1 ml per well) (=Day 0). The cells were then incubated at 37° C., 5% O2 overnight. […] The media was changed 50% (using differentiation media) on day 4 and from then on, media changed 50% every other day. For rat cells, the differentiation media contained 2% serum.
# mouse MAPCs = assay: Endothelial differentiation of mouse MAPCs (qRT-PCR); type: cell-based; details: Shh-antibody 0.5 micrograms/ml, cyclopamine 10 micromolar
# Procedure: as §1
# human MAPCs = details: about 10 ng/mL LIF, till 25 cell doublings; cited from earlier work
# murine MAPCs = details: about 10 ng/mL LIF added to PDGF-BB and EGF; cited from earlier work
# hMAPCs [2] = assay: Smooth muscle differentiation from hMAPCs; type: cell-based, human; details: hMAPCs treated for 6 days, Q-RT-PCR and immunofluorescence
# Procedure: Smooth muscle differentiation: hMAPCs were plated at 1×10^3 cells/cm^2 in growth media (58% low-glucose DMEM (Gibco BRL), 40% MCDB-201 (Sigma), 2% fetal calf serum (FCS) (Biochrom), ITS+1 (Sigma), 10^−8 M dexamethasone (Sigma), 10^−8 M ascorbic acid 2-phosphate (Sigma), 100 U penicillin, 1000 U streptomycin (Gibco BRL) and 10 ng/mL each of PDGF-BB and EGF during 24 hours and then media was exchanged with the same basal media, without FCS, EGF but now with 10 ng/ml TGF-β1. Media was changed every 4-5 days.
# hMAPC = assay: Lymphatic differentiation of hMAPC (real time PCR of Prox-1, Lyve-1, podoplanin); type: cell-based, human; details: compared with VEGF165 alone
# Procedure: Arterial and/or venous differentiation was induced by addition of different combinations of the following growth factors: VEGF121 was used at 100 ng/ml and VEGF165 in different combinations with Delta-like 4 (Dll-4), Jagged-1, or Shh (all from R&DSystems) all at 100 ng/ml. Lymphatic differentiation was induced by addition of 100 ng/ml VEGF-C(R&DSystems) and 20 ng/ml bFGF (Sigma). Except for VEGF121, which was added alone, the other factors were added at the same time as VEGF165 in the various described combinations.
# For real time RT-PCR Syber Green and Taq Man® methods were used as described (Hong et al., 2004). GAPDH was used as a housekeeping control. Results are presented as fold increase in comparison with the expression of the gene in undifferentiated cells or as percentage of positive control (cord blood derived venous and arterial ECs) (Jaffe et al., 1973; Neuhaus et al., 2003). Primers used for both RT-PCR and real time PCR are shown below in Table 2.
molecule,measurement,setting,value
CC1=C2C[C@H]3[C@@H](CC=C4C[C@@H](O)CC[C@@]43C)[C@@H]2CC[C@]12O[C@@H]1C[C@H](C)CN[C@H]1[C@H]2C [cyclopamine],expression of the venous marker EphB4,hMAPCs [1],slightly increased
same,"expression of arterial EC markers Hey-2, EphrinB1 and EphrinB2",hMAPCs [1],significantly decreased
same,arterial component in the cell cultures,rat MAPCs,decrease the arterial component
same,arterial component in the cell cultures,mouse MAPCs,decrease the arterial component
"CC(C)C[C@H](NC(=O)[C@H](Cc1ccccc1)C[C@@H](O)[C@H](Cc1ccccc1)NC(=O)OC(C)(C)C)C(=O)N[C@@H](Cc1ccccc1)C(N)=O [γ-secretase inhibitor, L-685,458]","expression of arterial EC markers Hey-2, EphrinB1 and EphrinB2",hMAPCs [1],even more pronounced attenuation
"LIF: leukemia inhibitory factor, culture supplement",short-term cell growth,human MAPCs,did not affect short-term cell growth
same,cell growth,murine MAPCs,significantly enhanced cell growth
"TGF-β1: growth factor, 10 ng/ml, used for smooth muscle differentiation",expression of SMC markers,hMAPCs [2],upregulated expression of SMC markers
"VEGF-C: VEGF family growth factor (R&DSystems) used for lymphatic differentiation (protein, UniProt P49767 112-227, looked up) Vascular endothelial growth …: AHYNTEILKSIDNEWRKTQCMPREVCIDVGKEFGVATNTFFKPPCVSVYRCGGCCNSEGLQCMNTSTSYLSKTLFEITVPLSQGPKPVTISFANHTSCRCMSKLDVYRQVHSIIRR","expression of lymphatic genes Prox-1, Lyve-1 and podoplanin",hMAPC,does not enhance expression of these genes more than VEGF165 alone
